The source of these data is patent publication US8785477B2, “Hexahydropyrrolo[3,4-b]pyrrole derivatives, preparation methods and pharmaceutical uses thereof” (Shanghai Sun-Sail Pharmaceutical Science & Technology Co., …, priority 2010, dated 2014).

The structures appear in SMILES notation. Structures can show the parent of a compound that is named as a salt. Where two headings read alike, the source gives them in different places.

Series [1] addresses T1, DPPIV (Homo sapiens (Human), UniProt P27487). The series is described as follows: DPP-IV-inhibiting activity, fluorescence assay with Ala-Pro-AMC substrate. Type of series: biochemical. The settings on record: pH7.5, 37° C. As to the method:
Determination of DPP-IV-inhibiting activity could be performed by common methods. DPP-IV was pure enzyme expressed by using baculovirus expressing system and purified. […] The reaction system was carried out in buffer of pH7.5 and the substrate was alanine-proline-7-amino-4-methylcoumarin (Ala-Pro-AMC).
DPP-IV could degradate substrate Ala-Pro-AMC to give product AMC. […] The DPP-IV activity could be determined by dynamic detecting the increasing speed of fluorescence value at 460 nm.
Thoroughly mixed test compounds, enzyme and reaction buffer, preincubated the mixture for 15 minutes at 37° C. and then primed reaction by adding substrate, successfully detecting fluorescence value at 460 nm for 5 minutes. […] All final reaction volumes were 100 μL. Each concentration of each sample consisted of parallel wells in triplate.
Firstly, calculated the increment of fluorescence intensity per unit time during the initial speed of enzyme (unit: RFU/sec) which can be used to express initial speed, then calculated activity percentage of sample in each concentration group as follows: Activity %=vsample/vDMSO*100%
Wherein, vsample represents initial speed of sample in each concentration group, vDMSO represents initial speed of DMSO group.
Logarithm concentration was plotted versus activity percentage, and then calculated fitting curve by nonlinear regression from which IC50 value was calculated.

Series [2] deals with T1, DPPIV. Put plainly: Selectivity panel, recombinant dipeptidase inhibition (fluorescence substrate): DPPIV. Type of series: biochemical. An excerpt: (§1) The recombinant proteins of DPPIV, DPP8, DPP9 and FAP were expressed by using insect expression system (purchased from Shanghai Jinmai Biotechnology Co. Ltd). The activities of these […] were detected by using fluorescence substrate.

For a further series, the target named is DPP8 (Homo sapiens (Human), UniProt Q6V1X1). Put plainly: Selectivity panel, recombinant dipeptidase inhibition (fluorescence substrate): DPP8. The format is biochemical. The settings on record: for Selective ratio DPP8/DPPIV: ratio of IC50 values; for IC50: recombinant DPP8.
DPP8, sequence (Q6V1X1 whole entry): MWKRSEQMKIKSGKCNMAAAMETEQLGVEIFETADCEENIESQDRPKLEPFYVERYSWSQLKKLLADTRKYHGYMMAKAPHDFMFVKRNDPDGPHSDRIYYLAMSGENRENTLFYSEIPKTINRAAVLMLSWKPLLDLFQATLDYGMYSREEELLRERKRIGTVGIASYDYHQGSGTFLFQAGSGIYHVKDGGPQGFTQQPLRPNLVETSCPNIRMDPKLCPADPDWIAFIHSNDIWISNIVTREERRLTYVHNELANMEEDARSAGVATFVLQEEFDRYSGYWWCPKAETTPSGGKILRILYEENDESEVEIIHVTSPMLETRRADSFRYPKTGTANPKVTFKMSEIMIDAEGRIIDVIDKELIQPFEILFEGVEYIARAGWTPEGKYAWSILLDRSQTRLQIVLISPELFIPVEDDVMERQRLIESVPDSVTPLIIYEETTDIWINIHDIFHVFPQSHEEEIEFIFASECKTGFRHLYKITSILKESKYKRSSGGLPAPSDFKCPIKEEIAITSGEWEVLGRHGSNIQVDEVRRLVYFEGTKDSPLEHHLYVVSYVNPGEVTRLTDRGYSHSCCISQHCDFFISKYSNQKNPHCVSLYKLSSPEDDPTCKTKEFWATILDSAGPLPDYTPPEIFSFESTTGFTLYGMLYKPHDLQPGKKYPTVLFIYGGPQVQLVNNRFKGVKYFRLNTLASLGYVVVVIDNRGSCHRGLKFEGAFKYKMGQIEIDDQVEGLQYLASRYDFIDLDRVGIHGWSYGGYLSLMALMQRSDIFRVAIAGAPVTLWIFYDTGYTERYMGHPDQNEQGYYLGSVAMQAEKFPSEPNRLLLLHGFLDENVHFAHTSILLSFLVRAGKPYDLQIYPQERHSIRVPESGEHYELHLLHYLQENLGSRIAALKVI
Description: as §1

Another series deals with DPP9 (Homo sapiens (Human), UniProt Q86TI2). Put plainly: Selectivity panel, recombinant dipeptidase inhibition (fluorescence substrate): DPP9. Type of series: biochemical. The settings on record: for Selective ratio DPP9/DPPIV: ratio of IC50 values; for IC50: recombinant DPP9.
DPP9, sequence (Q86TI2 whole entry): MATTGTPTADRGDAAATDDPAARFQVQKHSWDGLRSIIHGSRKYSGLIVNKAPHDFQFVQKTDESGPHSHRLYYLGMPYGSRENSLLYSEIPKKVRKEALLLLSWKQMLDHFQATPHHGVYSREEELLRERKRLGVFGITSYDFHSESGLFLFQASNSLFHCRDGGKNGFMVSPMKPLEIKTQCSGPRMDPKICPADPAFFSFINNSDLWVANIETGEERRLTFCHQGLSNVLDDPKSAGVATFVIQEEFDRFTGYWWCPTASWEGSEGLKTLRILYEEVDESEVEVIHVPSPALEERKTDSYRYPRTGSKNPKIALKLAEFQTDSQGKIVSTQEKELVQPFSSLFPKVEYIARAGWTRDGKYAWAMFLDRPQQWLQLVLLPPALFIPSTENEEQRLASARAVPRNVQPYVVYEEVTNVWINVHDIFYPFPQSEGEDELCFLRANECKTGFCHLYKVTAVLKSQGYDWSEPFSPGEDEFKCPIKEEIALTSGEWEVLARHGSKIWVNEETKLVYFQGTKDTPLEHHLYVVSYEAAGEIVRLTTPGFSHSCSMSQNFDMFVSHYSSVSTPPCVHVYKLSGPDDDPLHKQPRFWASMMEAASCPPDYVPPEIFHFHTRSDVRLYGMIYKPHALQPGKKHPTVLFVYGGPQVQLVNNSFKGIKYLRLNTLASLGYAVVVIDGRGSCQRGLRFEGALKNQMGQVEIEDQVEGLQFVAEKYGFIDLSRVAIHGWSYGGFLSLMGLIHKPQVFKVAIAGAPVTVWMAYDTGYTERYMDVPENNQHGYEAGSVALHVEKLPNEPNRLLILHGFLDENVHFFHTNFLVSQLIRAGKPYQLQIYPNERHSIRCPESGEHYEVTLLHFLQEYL
Description: as §1

For a further series, the target named is FAP (Homo sapiens (Human), UniProt Q12884). The series is described as follows: Selectivity panel, recombinant dipeptidase inhibition (fluorescence substrate): FAP. The format is biochemical.
FAP, sequence (Q12884 whole entry): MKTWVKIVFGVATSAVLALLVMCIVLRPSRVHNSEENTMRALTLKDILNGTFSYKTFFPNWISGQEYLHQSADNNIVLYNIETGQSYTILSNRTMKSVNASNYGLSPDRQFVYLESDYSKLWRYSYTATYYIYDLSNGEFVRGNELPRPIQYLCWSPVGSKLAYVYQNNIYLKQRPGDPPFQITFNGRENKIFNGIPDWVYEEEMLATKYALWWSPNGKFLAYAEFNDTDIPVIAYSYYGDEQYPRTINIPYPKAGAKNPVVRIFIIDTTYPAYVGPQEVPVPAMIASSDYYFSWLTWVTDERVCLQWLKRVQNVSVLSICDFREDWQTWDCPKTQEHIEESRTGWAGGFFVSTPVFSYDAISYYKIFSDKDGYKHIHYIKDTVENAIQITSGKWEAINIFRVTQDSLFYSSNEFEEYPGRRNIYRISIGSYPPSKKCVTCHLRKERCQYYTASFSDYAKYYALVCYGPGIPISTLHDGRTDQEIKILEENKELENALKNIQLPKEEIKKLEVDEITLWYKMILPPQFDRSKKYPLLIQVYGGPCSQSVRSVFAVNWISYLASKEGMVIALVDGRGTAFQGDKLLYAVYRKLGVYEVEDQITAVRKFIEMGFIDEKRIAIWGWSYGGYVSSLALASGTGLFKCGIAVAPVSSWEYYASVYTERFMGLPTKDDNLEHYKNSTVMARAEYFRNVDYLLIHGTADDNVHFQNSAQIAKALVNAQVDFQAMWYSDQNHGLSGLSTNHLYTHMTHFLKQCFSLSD
Description: as §1

A short description of series [3]: In vivo pharmacokinetic study in rats (gavage). Further details: species or system SD rats. The settings on record: 20 mg/kg gavage. Here is the method: 12 healthy, male SD rats with 200-220 g body weight were assigned randomly to 3 groups (4 in each group), particular assignment was shown in the table below:
Rats were fasted for 12 h before test with free access to water and uniformly fed at 2 h after administration.
Time points of blood collecting and samples treatment: 0.3 mL blood was drawn through mice post-glomus venous plexus at 0.25, 0.5, 1.0, 2.0, 3.0, 4.0, 5.0, 7.0, 9.0 and 24 hours post-administration, placed in heparinized test tube, centrifuged at 3000 rpm/min for 10 minutes, separated plasma, frozen in refrigerator at −20° C. Unchanged drug concentration in plasma was determined by liquid chromatography-tandem mass spectrometry method.

The test system of a further series is normal ICR mice. Put plainly: In vivo glucose-decreasing activity, oral glucose load in normal mice. The settings on record: 3.0 mg/kg gavage; for AUC (area under curve of blood glucose): glucose load 60 min post-administration, x ± s. As to the method: 70 male clean-grade ICR mice with 20.0-24.0 g body weight were provided by Experimental Animal Center of Zhejiang University. Production license number of experimental animal: SCXK[zhe]2007-0039; Use license number of experimental animal: SYXK(zhe)2007-0098.
Feeding condition for animals: met the requirement for experimental facility of SPF grade animals, temperature at 20-25° C., humidity of 0-70%, illuminating condition was alternately 12 hours of brightness and 12 hours of darkness, ventilation rate was 10-20 times per hour, free access to water (city drinking water), illumination was 12 h/12 h of alternating light and dark at day and night respectively.
50 male clean-grade mice passing quarantine with 20.0-24.0 g body weight were randomly divided into 5 groups which included solvent control group, model group, compound dose group (3.0 mg/kg) respectively, 10 per group.
Mice in each group were fasted for 12 hours and then 0.08 mL blood was drawn by cutting tail. Serum was collected and used to determinating fasting blood glucose value. After drawing blood, mice in each dose group were administrated by gavage with different drug solution of corresponding dose and mice in solvent control and model group were administrated with distilled water of equal volume, wherein administration volume was 0.2 mL/10 g. 0.08 mL blood was drawn from each group at 60 minutes post-administration to determine the blood glucose value at 60 minutes post-administration. After drawing blood, […] glucose was administrated by gavage to each group except for solvent control group, wherein administration volume was 0.2 mL/10 g, and then blood was drawn at 20 min, 40 min, 60 min, 120 min after administration of glucose respectively, blood was centrifugated at 6000 rpm for 10 min to separate serum for determining the blood glucose value at each time point, area under curve of blood glucose was calculated on the basis of blood glucose concentration.

Where [4] appears, read: male, SD, rat, plasma, po, read-out: Cmax.
Where [5] appears, read: male, SD, rat, plasma, po, read-out: Tmax.

T1 sequence (P27487 whole entry): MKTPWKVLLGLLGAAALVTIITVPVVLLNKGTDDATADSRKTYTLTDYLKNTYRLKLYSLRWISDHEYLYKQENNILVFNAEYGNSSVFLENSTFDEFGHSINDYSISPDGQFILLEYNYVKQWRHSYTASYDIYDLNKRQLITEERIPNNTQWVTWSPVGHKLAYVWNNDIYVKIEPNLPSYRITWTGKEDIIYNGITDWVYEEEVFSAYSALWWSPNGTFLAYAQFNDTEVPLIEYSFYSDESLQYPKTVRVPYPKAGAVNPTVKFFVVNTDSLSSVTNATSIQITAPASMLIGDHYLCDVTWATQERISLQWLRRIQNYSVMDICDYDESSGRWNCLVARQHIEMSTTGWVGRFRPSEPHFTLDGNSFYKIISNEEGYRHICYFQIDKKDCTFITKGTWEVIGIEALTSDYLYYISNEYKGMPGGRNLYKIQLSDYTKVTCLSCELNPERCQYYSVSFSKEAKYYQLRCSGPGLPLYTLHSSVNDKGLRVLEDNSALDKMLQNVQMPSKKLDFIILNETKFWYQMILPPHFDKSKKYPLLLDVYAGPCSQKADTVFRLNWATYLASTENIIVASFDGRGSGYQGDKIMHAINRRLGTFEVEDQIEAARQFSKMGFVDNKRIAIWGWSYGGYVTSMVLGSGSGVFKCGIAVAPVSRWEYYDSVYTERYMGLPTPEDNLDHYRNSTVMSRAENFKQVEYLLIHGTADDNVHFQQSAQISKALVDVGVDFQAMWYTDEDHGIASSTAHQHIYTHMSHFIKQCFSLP

Regarding `CN1C[C@@H]2CCN(C(=O)C[C@H](N)Cc3cc(F)c(F)cc3F)[C@@H]2C1` [Compound 1, (R)-3-amino-1-((3aS,6aS)-hexahydro-5-methylpyrrolo[3,4-b]pyrrol-1(2H)-yl)-4-(2,4,5-trifluorophenyl)butan-1-one fumarate], the IC50 against DPPIV [1] was determined as 0.0228 ± 0.00199 µM.
`CN(C)C(=O)N1C[C@@H]2CCN(C(=O)C[C@H](N)Cc3cc(F)c(F)cc3F)[C@@H]2C1` [Compound 3, (R)-3-amino-1-((3aS,6aS)-5-(N,N-dimethylaminoformyl)-hexahydropyrrolo[3,4-b]pyrrol-1(2H)-yl)-4-(2,4,5-trifluorophenyl)butane-1-one fumarate] came in with an IC50 on DPPIV [1] of 0.0177 ± 0.00377 µM.
For the molecule `CC(C)(F)C(=O)N1C[C@@H]2CCN(C(=O)C[C@H](N)Cc3cc(F)c(F)cc3F)[C@@H]2C1` [Compound 8, (R)-3-amino-1-((3aS,6aS)-5-(2-fluoro-2-methylpropionyl)-hexahydropyrrolo[3,4-b]pyrrol-1(2H)-yl)-4-(2,4,5-trifluorophenyl)butan-1-onefumarate], the IC50 worked out at 0.0112 ± 0.00376 µM on DPPIV [1]; 0.011 µM on DPPIV [2]; 17.6 ± 3.61 µM on DPP8; 3.55 ± 1.02 µM at DPP9; 13.5 ± 0.28 µM on FAP. For the same molecule, the “Selective ratio DPP8/DPPIV” value on DPP8 is listed as 1602. On DPP9, the “Selective ratio DPP9/DPPIV” value amounted to 322. The “AUC0−t” value in series [3] is 2921 ngh/mL. Further, in series [3] (male, SD, rat, plasma, po), the half-life is 2.29 h. The Cmax in series [3] (setting [4]) stood at 933 ng/mL. In addition, the Tmax in series [3] (setting [5]) turned out to be 1 h. Besides, the “inhibition rate (blood glucose AUC)” value in the series on normal ICR mice was 63.0%. The “AUC (area under curve of blood glucose)” value in the series on normal ICR mice came to 129 ± 41 mmol·min/L.
With `N[C@@H](CC(=O)N1CC[C@H]2CN(C(=O)C3CC3)C[C@H]21)Cc1cc(F)c(F)cc1F` [Compound 12, (R)-3-amino-1-((3aS,6aS)-5-(cyclopropylcarbonyl)-hexahydropyrrolo[3,4-b]pyrrol-1(2H)-yl)-4-(2,4,5-trifluorophenyl)butan-1-one fumarate], at DPPIV [1], the IC50 came to 0.0259 ± 0.00391 µM.
Same read-out and setting: the figure for `N#CC1(C(=O)N2C[C@@H]3CCN(C(=O)C[C@H](N)Cc4cc(F)c(F)cc4F)[C@@H]3C2)CC1` [Compound 17, (R)-3-amino-1-((3aS,6aS)-5-(1-cyanocyclopropylcarbonyl)-hexahydropyrrolo[3,4-b]pyrrol-1(2H)-yl)-4-(2,4,5-trifluorophenyl)butan-1-one fumarate] is 0.0115 µM.
With `CC(C)(C)C(=O)N1C[C@@H]2CCN(C(=O)C[C@H](N)Cc3cc(F)c(F)cc3F)[C@@H]2C1` [Compound 20, (R)-3-amino-1-((3aS,6aS)-5-(tertvaleryl)-hexahydropyrrolo[3,4-b]pyrrol-1(2H)-yl)-4-(2,4,5-trifluorophenyl)butan-1-one fumarate], the IC50 against DPPIV [1] turned out to be 0.0232 ± 0.00224 µM; on DPPIV [2] it was 0.023 µM; on DPP8, 20.9 ± 5.63 µM; at DPP9, 5.55 ± 2.52 µM; on FAP it was 15.9 ± 4.72 µM. Moreover, on DPP8, the “Selective ratio DPP8/DPPIV” value worked out at 907. Moreover, the “Selective ratio DPP9/DPPIV” value at DPP9 worked out at 241. Further, the “AUC0−t” value in series [3] worked out at 2076 ngh/mL. The molecule also showed a half-life in series [3] (male, SD, rat, plasma, po) of 2.45 h. The Cmax in series [3] (setting [4]) was 917 ng/mL. The Tmax in series [3] (setting [5]) is 0.81 h. Also, the “inhibition rate (blood glucose AUC)” value with normal ICR mice turned out to be 38.3%. For the same molecule, the “AUC (area under curve of blood glucose)” value with normal ICR mice is 215 ± 44 mmol·min/L.
Turning to `CS(=O)(=O)c1cccc(C(=O)N2C[C@@H]3CCN(C(=O)C[C@H](N)Cc4cc(F)c(F)cc4F)[C@@H]3C2)c1.O=C(O)/C=C/C(=O)O` [Compound 26, (R)-3-amino-1-((3aS,6aS)-5-(3-mesylbenzoyl)-hexahydropyrrolo[3,4-b]pyrrol-1(2H)-yl)-4-(2,4,5-trifluorophenyl)butan-1-one fumarate], the IC50 is 0.00261 ± 0.00046 µM against DPPIV [1]; 0.0026 µM on DPPIV [2]; 15.8 ± 7.65 µM on DPP8; 3.45 ± 3.47 µM at DPP9; 11.3 ± 4.02 µM on FAP. Further, the “Selective ratio DPP8/DPPIV” value on DPP8 was determined as 6057. For the same molecule, the “Selective ratio DPP9/DPPIV” value on DPP9 amounted to 1311.
For the molecule `N[C@@H](CC(=O)N1CCn2c(nnc2C(F)(F)F)C1)Cc1cc(F)c(F)cc1F` [Sitagliptin, reference compound], in series [3], the “AUC0−t” value was determined as 1655 ngh/mL, the Cmax was 477 ng/mL, the T1/2 is 2.11 h and the Tmax is recorded as 0.44 h. Also, in the series on normal ICR mice, the “inhibition rate (blood glucose AUC)” value amounted to 31.1% and the “AUC (area under curve of blood glucose)” value was 240 ± 24 mmol·min/L.

The term IC50 denotes the concentration at which inhibition is half-maximal. The term half-life denotes how long it takes for the measured level to halve. High values mean slow decline, low ones rapid decline. Broadly, the Cmax is the maximum level reached in the sampled fluid or tissue. By Tmax is commonly meant the time from dosing to the highest level.
